Columns and labels:
Type in all cases: in vivo
[1] = test system: Amaranthus retroflexus (AMARE); experiment: Post-emergence herbicidal activity (B2); details: Test B2b, 1000 g/ha, evaluated after 13 days, 5=total damage to plant, 0=no damage to plant
Protocol: (§1) B2 Post-Emergence Herbicidal Activity Seeds of a variety of test species were sown in standard soil in pots: Triticum aestivium (TRZAW), Avena fatua (AVEFA), Alopecurus myosuroides (ALOMY), Echinochloa crus-galli (ECHCG), Lolium perenne (LOLPE), Zea Mays (ZEAMX), Abutilon theophrasti (ABUTH), Amaranthus retroflexus (AMARE) and Setaria faberi (SETFA). After 8 days cultivation (post-emergence) under controlled conditions in a glasshouse (at 24/16° C., day/night; 14 hours light; 65% humidity), the plants were sprayed with an aqueous spray solution derived from the formulation of the technical active ingredient in acetone/water (50:50) solution containing 0.5% Tween 20 (polyoxyethelyene sorbitan monolaurate, CAS RN 9005-64-5). The test plants were then grown in a glasshouse under controlled conditions (at 24/16° C., day/night; 14 hours light; 65% humidity) and watered twice daily. After 13 days, the test was evaluated (5=total damage to plant; 0=no damage to plant). Tables B2a and B2b Control of Weed Species by Compound of Formula (I) after Post-Emergence Application

Lolium perenne (LOLPE) [2] = experiment: Post-emergence herbicidal activity (B2); details: Test B2b, 1000 g/ha, evaluated after 13 days, 5=total damage to plant, 0=no damage to plant
Protocol: as §1

Setaria faberi (SETFA) [3] = experiment: Post-emergence herbicidal activity (B2); details: Test B2b, 1000 g/ha, evaluated after 13 days, 5=total damage to plant, 0=no damage to plant
Protocol: as §1

Zea Mays (ZEAMX) [4] = experiment: Post-emergence herbicidal activity (B2); details: Test B2b, 1000 g/ha, evaluated after 13 days, 5=total damage to plant, 0=no damage to plant
Protocol: as §1

[5] = test system: Echinochloa crus-galli (ECHCG); experiment: Post-emergence herbicidal activity (B2); details: Test B2b, 1000 g/ha, evaluated after 13 days, 5=total damage to plant, 0=no damage to plant
Protocol: as §1

[6] = test system: Abutilon theophrasti (ABUTH); experiment: Post-emergence herbicidal activity (B2); details: Test B2b, 1000 g/ha, evaluated after 13 days, 5=total damage to plant, 0=no damage to plant
Protocol: as §1

[7] = test system: Amaranthus retroflexus (AMARE); experiment: Pre-emergence herbicidal activity (B1); details: Test 1b, 1000 g/ha, evaluated after 13 days, 5=total damage to plant, 0=no damage to plant
Protocol: as §1, with “B1 Pre-Emergence” for “B2 Post-Emergence”, “After” for “After 8 days”, “for one day (pre-emergence)” for “(post-emergence)”, “B1a” for “B2a”, “B1b” for “B2b”, “Pre-Emergence” for “Post-Emergence”

Lolium perenne (LOLPE) [8] = experiment: Pre-emergence herbicidal activity (B1); details: Test 1b, 1000 g/ha, evaluated after 13 days, 5=total damage to plant, 0=no damage to plant
Protocol: as §1, with “B1 Pre-Emergence” for “B2 Post-Emergence”, “After” for “After 8 days”, “for one day (pre-emergence)” for “(post-emergence)”, “B1a” for “B2a”, “B1b” for “B2b”, “Pre-Emergence” for “Post-Emergence”

Setaria faberi (SETFA) [9] = experiment: Pre-emergence herbicidal activity (B1); details: Test 1b, 1000 g/ha, evaluated after 13 days, 5=total damage to plant, 0=no damage to plant
Protocol: as §1, with “B1 Pre-Emergence” for “B2 Post-Emergence”, “After” for “After 8 days”, “for one day (pre-emergence)” for “(post-emergence)”, “B1a” for “B2a”, “B1b” for “B2b”, “Pre-Emergence” for “Post-Emergence”

Zea Mays (ZEAMX) [10] = experiment: Pre-emergence herbicidal activity (B1); details: Test 1b, 1000 g/ha, evaluated after 13 days, 5=total damage to plant, 0=no damage to plant
Protocol: as §1, with “B1 Pre-Emergence” for “B2 Post-Emergence”, “After” for “After 8 days”, “for one day (pre-emergence)” for “(post-emergence)”, “B1a” for “B2a”, “B1b” for “B2b”, “Pre-Emergence” for “Post-Emergence”

[11] = test system: Echinochloa crus-galli (ECHCG); experiment: Pre-emergence herbicidal activity (B1); details: Test 1b, 1000 g/ha, evaluated after 13 days, 5=total damage to plant, 0=no damage to plant
Protocol: as §1, with “B1 Pre-Emergence” for “B2 Post-Emergence”, “After” for “After 8 days”, “for one day (pre-emergence)” for “(post-emergence)”, “B1a” for “B2a”, “B1b” for “B2b”, “Pre-Emergence” for “Post-Emergence”

[12] = test system: Abutilon theophrasti (ABUTH); experiment: Pre-emergence herbicidal activity (B1); details: Test 1b, 1000 g/ha, evaluated after 13 days, 5=total damage to plant, 0=no damage to plant
Protocol: as §1, with “B1 Pre-Emergence” for “B2 Post-Emergence”, “After” for “After 8 days”, “for one day (pre-emergence)” for “(post-emergence)”, “B1a” for “B2a”, “B1b” for “B2b”, “Pre-Emergence” for “Post-Emergence”

Structure (SMILES) | AMARE damage score [1] | LOLPE damage score (Lolium perenne (LOLPE) [2]) | SETFA damage score (Setaria faberi (SETFA) [3]) | ZEAMX damage score (Zea Mays (ZEAMX) [4]) | ECHCG damage score [5] | ABUTH damage score [6] | AMARE damage score [7] | LOLPE damage score (Lolium perenne (LOLPE) [8]) | SETFA damage score (Setaria faberi (SETFA) [9]) | ZEAMX damage score (Zea Mays (ZEAMX) [10]) | ECHCG damage score [11] | ABUTH damage score [12]
CC(Nc1ccc(-c2cncc(F)c2)nc1C(F)(F)F)c1ccccc1 (stereo not drawn) [Compound A17] | 0 | 1 | 4 | 4 | 4 | 0 | 0 | 0 | 2 | 0 | 0 | 0
Fc1cncc(-c2ccc(NCc3cccc(Cl)c3)c(C(F)(F)F)n2)c1 [Compound A18] | 0 | 2 | 5 | 5 | 3 | 0 | 0 | 0 | 4 | 4 | 2 | 0
COC(=O)C(C)Nc1ccc(-c2cncc(F)c2)nc1C(F)(F)F (stereo not drawn) [Compound A19] | 2 | 3 | 5 | 5 | 4 | 1 | 1 | 2 | 4 | 5 | 3 | 0
Cc1ccc(CNc2ccc(-c3cncc(F)c3)nc2C(F)(F)F)cc1 [Compound A20] | 0 | 2 | 5 | 5 | 3 | 0 | 0 | 0 | 5 | 3 | 2 | 0
Fc1cncc(-c2ccc(NCc3ccccc3)c(C(F)(F)F)n2)c1 [Compound A21] | 1 | 1 | 5 | 5 | 1 | 0 | 1 | 2 | 5 | 3 | 3 | 0
COC(=O)CNc1ccc(-c2cncc(F)c2)nc1C(F)(F)F [Compound A22] | 3 | 4 | 5 | 5 | 5 | 2 | 3 | 2 | 4 | 5 | 4 | 0
Fc1cncc(-c2ccc(NCc3ccc(Cl)cc3)c(C(F)(F)F)n2)c1 [Compound A24] | 0 | 2 | 5 | 5 | 3 | 0 | 0 | 1 | 4 | 3 | 2 | 0
C=CCNc1ccc(-c2cncc(F)c2)nc1C(F)(F)F [Compound A25] | 2 | 3 | 5 | 5 | 4 | 0 | 1 | 2 | 4 | 5 | 4 | 0
Fc1cncc(-c2ccc(NCc3ccc(C(F)(F)F)cc3)c(C(F)(F)F)n2)c1 [Compound A26] | 0 | 2 | 4 | 5 | 3 | 0 | 0 | 0 | 4 | 2 | 2 | 0
CCNc1ccc(-c2cncc(F)c2)nc1C(F)(F)F [Compound A27] | 0 | 4 | 5 | 5 | 4 | 0 | 0 | 2 | 4 | 5 | 5 | 0
Fc1cncc(-c2ccc(NCc3ccc(F)cc3F)c(C(F)(F)F)n2)c1 [Compound A28] | 1 | 2 | 5 | 5 | 3 | 0 | 0 | 0 | 4 | 2 | 2 | 0
Fc1cncc(-c2ccc(NCC3CC3)c(C(F)(F)F)n2)c1 [Compound A29] | 2 | 4 | 5 | 5 | 5 | 2 | 3 | 3 | 5 | 5 | 4 | 1

From US10986838B2, “Herbicides” (SYNGENTA PARTICIPATIONS AG, priority 2016, dated 2021)
